Experiments:
Experiment in all cases: Uptake of SA-HRP::MBD peptide complexes
Format in all cases: cell-based, human
HOP 18 = tested on: HOP 18
Procedure: (§1) HEK293 kidney cell line and 54 tumor cell lines obtained from the National Cancer Institute and passaged in RPMI1640 cell culture medium supplemented with 10% fetal bovine serum and 10 uM FeCl2. Uptake of streptavidin-horseradish peroxidase (SA-HRP) conjugate and of various SA-HRP::MBD peptide complexes was determined as described (Singh et al. J Biol Chem. 279 (1):477-87 [2004]) using biotinylated MBD9 ([…]) (SEQ ID NO: 10) and MBD21 ([…]) (SEQ ID NO: 4) peptides and SA-HRP. Nuclear and cytoplasmic localization of these proteins was also determined in each case. […] In order to establish the underlying molecular mechanism for this variability, we cross-linked MBD21 peptide to the following cell surface markers at 4 degrees Celsius as previously described (Singh et al. J Biol Chem. 279 (1):477-87 [2004]): transferrin receptor 1, caveolin 1, PCNA, integrins alpha v, 2, 5 and 6, integrins beta 1, 3 and 5. […] Based on the strength of these correlations, it was possible to derive crude predictive formulae for MBD-mediated uptake based on the rate of cross-linking to surface markers. Such predictive formulas could form the basis for a diagnostic procedure to select appropriate targets for MBD-based therapies.

DU-145 = tested on: DU-145
Procedure: as §1

NCI-H522 = tested on: NCI-H522
Procedure: as §1

A2780 = tested on: A2780
Procedure: as §1

KM12 = tested on: KM12
Procedure: as §1

NCI-H23 = tested on: NCI-H23
Procedure: as §1

HOP 62 = tested on: HOP 62
Procedure: as §1

BT-549 = tested on: BT-549
Procedure: as §1

A549 = tested on: A549
Procedure: as §1

SHP-77 = tested on: SHP-77
Procedure: as §1

Lewis Lung = tested on: Lewis Lung
Procedure: as §1

COLO 205 = tested on: COLO 205
Procedure: as §1

IGR-OV1 = tested on: IGR-OV1
Procedure: as §1

A704 = tested on: A704
Procedure: as §1

HOP 92 = tested on: HOP 92
Procedure: as §1

NCI-H460 = tested on: NCI-H460
Procedure: as §1

SN12C = tested on: SN12C
Procedure: as §1

CCRF-CEM = tested on: CCRF-CEM
Procedure: as §1

OVCAR-3 = tested on: OVCAR-3
Procedure: as §1

RPMI 8226 = tested on: RPMI 8226
Procedure: as §1

HT-29 = tested on: HT-29
Procedure: as §1

786-O = tested on: 786-O
Procedure: as §1

PC-3 = tested on: PC-3
Procedure: as §1

WIDR = tested on: WIDR
Procedure: as §1

HS 913T = tested on: HS 913T
Procedure: as §1

OVCAR-5 = tested on: OVCAR-5
Procedure: as §1

HCT-15 = tested on: HCT-15
Procedure: as §1

HCC 2998 = tested on: HCC 2998
Procedure: as §1

UO-31 = tested on: UO-31
Procedure: as §1

SW-620 = tested on: SW-620
Procedure: as §1

OVCAR-8 = tested on: OVCAR-8
Procedure: as §1

EKVX = tested on: EKVX
Procedure: as §1

Which results are given for KKGFYKKKKQCRPSKGRKRGFCWNGRK [MBD9]?
SA-HRP uptake, Cyt. (HOP 18; HOP 18, cytoplasmic): 16.6 ng; SA-HRP uptake, Nuc. (HOP 18; HOP 18, nuclear): 8.1 ng; SA-HRP uptake, Cyt. (DU-145; DU-145, cytoplasmic): 3.1 ng; SA-HRP uptake, Nuc. (DU-145; DU-145, nuclear): <0.04 ng; SA-HRP uptake, Cyt. (NCI-H522; NCI-H522, cytoplasmic): 9.1 ng; SA-HRP uptake, Nuc. (NCI-H522; NCI-H522, nuclear): 3.7 ng; SA-HRP uptake, Cyt. (A2780; A2780, cytoplasmic): 20.7 ng; SA-HRP uptake, Nuc. (A2780; A2780, nuclear): 2.8 ng; SA-HRP uptake, Cyt. (KM12; KM12, cytoplasmic): 3.6 ng; SA-HRP uptake, Nuc. (KM12; KM12, nuclear): 1.0 ng; SA-HRP uptake, Cyt. (NCI-H23; NCI-H23, cytoplasmic): 10.8 ng; SA-HRP uptake, Nuc. (NCI-H23; NCI-H23, nuclear): 6.6 ng; SA-HRP uptake, Cyt. (HOP 62; HOP 62, cytoplasmic): 12.0 ng; SA-HRP uptake, Nuc. (HOP 62; HOP 62, nuclear): 0.9 ng; SA-HRP uptake, Cyt. (BT-549; BT-549, cytoplasmic): 7.2 ng; SA-HRP uptake, Nuc. (BT-549; BT-549, nuclear): 2.1 ng; SA-HRP uptake, Cyt. (A549; A549, cytoplasmic): 9.6 ng; SA-HRP uptake, Nuc. (A549; A549, nuclear): 3.5 ng; SA-HRP uptake, Cyt. (SHP-77; SHP-77, cytoplasmic): 12.8 ng; SA-HRP uptake, Nuc. (SHP-77; SHP-77, nuclear): 5.9 ng; SA-HRP uptake, Cyt. (Lewis Lung; cytoplasmic): 8.6 ng; SA-HRP uptake, Nuc. (Lewis Lung; nuclear): 7.2 ng; SA-HRP uptake, Cyt. (COLO 205; COLO 205, cytoplasmic): 2.9 ng; SA-HRP uptake, Nuc. (COLO 205; COLO 205, nuclear): 0.9 ng; SA-HRP uptake, Cyt. (IGR-OV1; IGR-OV1, cytoplasmic): 7.0 ng; SA-HRP uptake, Nuc. (IGR-OV1; IGR-OV1, nuclear): 2.6 ng; SA-HRP uptake, Cyt. (A704; A704, cytoplasmic): 10.9 ng; SA-HRP uptake, Nuc. (A704; A704, nuclear): 1.8 ng; SA-HRP uptake, Cyt. (HOP 92; HOP 92, cytoplasmic): 2.5 ng; SA-HRP uptake, Nuc. (HOP 92; HOP 92, nuclear): 1.6 ng; SA-HRP uptake, Cyt. (NCI-H460; NCI-H460, cytoplasmic): 30.3 ng; SA-HRP uptake, Nuc. (NCI-H460; NCI-H460, nuclear): 5.6 ng; SA-HRP uptake, Cyt. (SN12C; cytoplasmic): 10.6 ng; SA-HRP uptake, Nuc. (SN12C; nuclear): 3.5 ng; SA-HRP uptake, Cyt. (CCRF-CEM; cytoplasmic): 46.2 ng; SA-HRP uptake, Nuc. (CCRF-CEM; nuclear): 1.8 ng; SA-HRP uptake, Cyt. (OVCAR-3; OVCAR-3, cytoplasmic): 2.4 ng; SA-HRP uptake, Nuc. (OVCAR-3; OVCAR-3, nuclear): 4.6 ng; SA-HRP uptake, Cyt. (RPMI 8226; RPMI 8226, cytoplasmic): 6.5 ng; SA-HRP uptake, Nuc. (RPMI 8226; RPMI 8226, nuclear): 0.0 ng; SA-HRP uptake, Cyt. (HT-29; HT-29, cytoplasmic): 6.1 ng; SA-HRP uptake, Nuc. (HT-29; HT-29, nuclear): 7.7 ng; SA-HRP uptake, Cyt. (786-O; cytoplasmic): 2.9 ng; SA-HRP uptake, Nuc. (786-O; nuclear): 3.9 ng; SA-HRP uptake, Cyt. (PC-3; PC-3, cytoplasmic): 23.2 ng; SA-HRP uptake, Nuc. (PC-3; PC-3, nuclear): 8.5 ng; SA-HRP uptake, Cyt. (WIDR; cytoplasmic): 3.4 ng; SA-HRP uptake, Nuc. (WIDR; nuclear): 0.7 ng; SA-HRP uptake, Cyt. (HS 913T; cytoplasmic): 3.4 ng; SA-HRP uptake, Nuc. (HS 913T; nuclear): 1.1 ng; SA-HRP uptake, Cyt. (OVCAR-5; OVCAR-5, cytoplasmic): 2.7 ng; SA-HRP uptake, Nuc. (OVCAR-5; OVCAR-5, nuclear): 1.2 ng; SA-HRP uptake, Cyt. (HCT-15; HCT-15, cytoplasmic): 4.0 ng; SA-HRP uptake, Nuc. (HCT-15; HCT-15, nuclear): 0.8 ng; SA-HRP uptake, Cyt. (HCC 2998; HCC 2998, cytoplasmic): 4.6 ng; SA-HRP uptake, Nuc. (HCC 2998; HCC 2998, nuclear): 3.7 ng; SA-HRP uptake, Cyt. (UO-31; UO-31, cytoplasmic): 4.6 ng; SA-HRP uptake, Nuc. (UO-31; UO-31, nuclear): 1.0 ng; SA-HRP uptake, Cyt. (SW-620; SW-620, cytoplasmic): 3.2 ng; SA-HRP uptake, Nuc. (SW-620; SW-620, nuclear): 0.7 ng; SA-HRP uptake, Cyt. (OVCAR-8; OVCAR-8, cytoplasmic): 3.9 ng; SA-HRP uptake, Nuc. (OVCAR-8; OVCAR-8, nuclear): 5.0 ng; SA-HRP uptake, Cyt. (EKVX; cytoplasmic): 7.2 ng; SA-HRP uptake, Nuc. (EKVX; nuclear): 4.2 ng

Source: patent US7618816B2, “Metal-binding therapeutic peptides” (Ontherix, Inc., priority 2005, dated 2009)
